Marks after values point to notes of the source that are not given here.
Key:
[1] = system: methane emissions by sheep; experiment: In vivo test for methane inhibition: methane emissions in chambers; conditions: for CH4, l/kg BW / CH4, l/day / CH4, l/kg DMI: average of 3 consecutive days; for CH4, l/kg BW: control 0.59; for CH4, l/day: control 25.5; for CH4, l/kg DMI: control 31.5; for reduction of methane emissions: vs control
From the text: (§1) The experimental design consisted of a cross-over design with 2 sheep per treatment in each period. The trial consisted in 3 consecutive periods of: 14 days of adaptation to the dose plus three consecutive days of methane measurements in chambers. This 14 days adaptation phase was established as the period necessary for wash out between different doses assayed in consecutive periods. During the last two days of methane measurements in chambers rumen contents samples were collected two hours after the morning feeding, sub sampled and immediately frozen prior DNA extraction and determination of volatile fatty acids and ammonia nitrogen concentration. Experimental animals were randomly allocated in three sub-groups of 2 animals and were assigned one of the three treatments (control, dose 1 and dose 2). The 3 sub-groups started the adaptation period with a gap of three days so they had the same number of adaptation days prior to methane measurement in the chambers. Each animal was held in cages with constant access to fresh water. The diet provided to the animals consisted of alfalfa hay chopped at 15 to 20 cm and concentrate in a proportion 1:1 at approximately 1.1 times the energy requirements maintenance level (Prieto et al, 1990) plus mineral-vitamin supplement. Fresh matter intake was monitored daily for each animal throughout the trial. The diet was provided to animals in two equal meals at 9.00 h and 14.00 h.
The additive was provided twice a day through the ruminal cannula at the same time as the diet. The corresponding amount to each dose was added into 10 grams of grounded concentrate and wrapped in cellulose paper immediately before it was placed in the rumen. In order to avoid the volatility of the active molecule, both additives were kept in a cold room at 4° C. where the daily process of dispensing it in the cellulose bags was carried out.
The doses were 50 (dose 1) and 500 (dose 2) mg/animal per day. The higher dose was reached after 3 days of gradual increases (50, 200 and 500 mg), so the whole adaptation period was consequently extended for 3 more days.
On day 14 animals were introduced in the chambers for methane measurements for 3 consecutive days. Each chamber measured 1.8 m wide×1.8 m deep×1.5 m tall. Chamber air temperature was maintained between 15 and 20° C. Within each chamber, the animals were individually restrained in the same cages as in the adaptation period. Interruptions occurred daily at 8.30 h, when the chamber floor was cleaned, and the animals were fed. These interruptions had little impact on the daily emissions because fluxes were calculated three times per day and then averaged to derive the 23-hour emission value. Airflow and concentration of methane was measured for the intake and exhaust ducts of each chamber. Air velocity was continuously monitored over the day in each intake and exhaust duct for each chamber. The air stream in each of the 3 ducts (chamber 1, chamber 2 and background) was sub-sampled, and methane concentration was measured continuously using a gas analyzer ADM MGA3000 (Spurling works, Herts, UK). It took 8 min. to sequentially sample the airflow in all intake and exhaust ducts in both chambers (3 min. in chambers 1 and 2, 2 min for background). In summary, the flux of methane for each chamber was calculated for each of the 3-day periods of measurement from the difference of fresh-air input and chamber exhaust methane concentrations and mean air velocities.
Individual methane emissions, VFA profiles, ratio of acetate to propionate, ammonia N concentration, and log10 transformations of concentration of total bacteria, total protozoa and methanogenic archaea were analyzed for the following effects: additive dose, day of measurement, and their interaction using a repeated measures analysis of variance under the cross-over design arrangement of the experiment. The standard error of the mean (SEM) was computed for each analysis. […]

[2] = system: protozoa (18SrRNA); experiment: In vivo test: qPCR of total protozoa in rumen contents; conditions: rumen of sheep; for Total protozoa concentration: control 2.38 × 10^6; for Total protozoa, log10: control 6.35
From the text: as §1
Samples of rumen contents were freeze-dried and thoroughly mixed by physical disruption using a bead beater (Mini-bead Beater; BioSpec Products, Bartlesville, Okla., USA) before DNA extraction, which was performed from approximately 50 mg sample using the QIAamp® DNA Stool Mini Kit (Qiagen Ltd, West Sussex, UK) following the manufacturer's instructions with the modification that a higher temperature (95° C.) was used for lysis incubation. DNA samples were used as templates for quantitative real-time PCR (qPCR) amplification. The numbers of total bacteria, total protozoa and total methanogenic archaea were quantified by Real Time—PCR (qPCR).
Different primer sets were used to amplify 16S rRNA gene-targeted total bacteria (Maeda et al. FEMS Inmunology and Medical Microbiology 39, 81-86, 2003), and protozoa (Sylvester et al. Journal Dairy Science. 88, 2083-2095 2005). […] The amplification efficiency was evaluated for each pair of primers with the following program: 5 min cycle at 95° C., 40 cycles at 95° C. for 15 s, 60° C. for 30 s, 72° C. for 55 s and, 75° C. during 6 s for fluorescent emission measures. The melting curve was built by increasing temperature from 55° C. to 95° C. and reading were taken every 5° C. […] The absolute amount of bacteria, protozoa and methanogenic archaea expressed as the number of DNA copies, was determined by using standards. […]

SMILES: CCOC(=O)CCO[N+](=O)[O-] [Ethyl-3-nitrooxy propionate]
- CH4, l/kg BW ([1]; Dose 1 (50 mg/animal per day)): 0.51^ab l/kg BW
- CH4, l/day ([1]; Dose 1 (50 mg/animal per day)): 22.3^ab l/day
- CH4, l/kg DMI ([1]; Dose 1 (50 mg/animal per day)): 26.0^ab l/kg DMI
- CH4, l/kg BW ([1]; Dose 2 (500 mg/animal per day)): 0.42^b l/kg BW
- CH4, l/day ([1]; Dose 2 (500 mg/animal per day)): 18^b l/day
- CH4, l/kg DMI ([1]; Dose 2 (500 mg/animal per day)): 22.2^b l/kg DMI
- reduction of methane emissions ([1]; dose 1 (50 mg/animal per day)): 18%
- reduction of methane emissions ([1]; dose 2 (500 mg/animal per day), P<0.05): 29%
- inhibition of methanogenesis (conclusion in words) ([1]; sheep, 50 and 500 mg/animal per day): strong inhibitor of methanogenesis
- Total protozoa concentration ([2]; Dose 1 (50 mg/animal per day)): 2.08 × 10^6 copy gene numbers/g fresh matter
- Total protozoa, log10 ([2]; Dose 1 (50 mg/animal per day)): 6.28 log10
- Total protozoa concentration ([2]; Dose 2 (500 mg/animal per day)): 2.77 × 10^6 copy gene numbers/g fresh matter
- Total protozoa, log10 ([2]; Dose 2 (500 mg/animal per day)): 6.43 log10
